From patent publication US9540392B2, “Thienopyrimidines” (BAYER PHARMA AKTIENGESELLSCHAFT, priority 2012, dated 2017)
Read-outs that look alike come from different tables or passages of the source.

Target: T1, human full-length MKNK1 (Homo sapiens, UniProt Q9BUB5, T385D)
T1 construct: GST (N); purchased Carna Biosciences 02-145; host or cells: insect cells (baculovirus expression system)
Test: MKNK1 kinase high ATP assay (TR-FRET)
Format: biochemical
Procedure, shortened: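 Compound was preincubated 15 min at 22° C. with MKNK1 in 50 mM HEPES pH 7.5, 5 mM MgCl2, 1.0 mM DTT, then the reaction ran 30 min at 22° C. with 2 mM ATP and 0.06 μM biotinylated peptide (final).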

[1] = 2 mM ATP, after preincubation with MKNK1, read-out: MKNK1 IC50 (MKNK1 high ATP)

T1 sequence (Q9BUB5 1-424 isoform Q9BUB5-2 T344D): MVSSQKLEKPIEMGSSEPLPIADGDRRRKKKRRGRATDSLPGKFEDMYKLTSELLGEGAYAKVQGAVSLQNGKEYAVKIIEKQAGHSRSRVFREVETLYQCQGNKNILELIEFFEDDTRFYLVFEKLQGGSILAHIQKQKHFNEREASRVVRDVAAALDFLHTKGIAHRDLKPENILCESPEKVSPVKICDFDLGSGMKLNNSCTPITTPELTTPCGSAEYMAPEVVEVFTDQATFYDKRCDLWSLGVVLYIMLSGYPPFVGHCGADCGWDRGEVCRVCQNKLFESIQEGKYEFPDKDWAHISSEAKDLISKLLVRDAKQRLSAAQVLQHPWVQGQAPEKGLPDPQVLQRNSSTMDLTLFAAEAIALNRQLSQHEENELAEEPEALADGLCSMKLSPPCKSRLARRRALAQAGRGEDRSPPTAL

CC(C)Oc1cc2[nH]ncc2cc1Nc1ncnc2sc3c(c12)CCC(C(=O)N1CCOCC1)C3 (racemic) [Example 218, (RS)-Morpholin-4-yl(4-{[6-(propan-2-yloxy)-1H-indazol-5-yl]amino}-5,6,7,8-tetrahydro[1]benzothieno[2,3-d]pyrimidin-7-yl)methanone]
IC50 [1]: 1.2 nM

O=C(Nc1cccnn1)C1CCc2c(sc3ncnc(Nc4ccc5[nH]ncc5c4)c23)C1 (racemic) [Example 149, (RS)-4-(1H-indazol-5-ylamino)-N-(pyridazin-3-yl)-5,6,7,8-tetrahydro[1]benzothieno[2,3-d]pyrimidine-7-carboxamide]
IC50 [1]: 27.4 nM

CN(C(=O)C1CCc2c(sc3ncnc(Nc4ccc5[nH]ncc5c4)c23)C1)c1ccccc1 (racemic) [Example 91, (RS)-4-(1H-indazol-5-ylamino)-N-methyl-N-phenyl-5,6,7,8-tetrahydro[1]benzothieno[2,3-d]pyrimidine-7-carboxamide]
IC50 [1]: 6.6 nM

CCOC(=O)C1CCc2c(sc3ncnc(Nc4ccc5[nH]nc(C)c5c4)c23)C1 (racemic) [Example 61, (RS)-Ethyl 4-[(3-methyl-1H-indazol-5-yl)amino]-5,6,7,8-tetrahydro[1]benzothieno[2,3-d]pyrimidine-7-carboxylate]
IC50 [1]: 1020 nM

O=C(C1CCc2c(sc3ncnc(Nc4ccc5[nH]ncc5c4)c23)C1)N1CCN(c2ccccc2)CC1 (racemic) [Example 106, (RS)-[4-(1H-indazol-5-ylamino)-5,6,7,8-tetrahydro[1]benzothieno[2,3-d]pyrimidin-7-yl](4-phenylpiperazin-1-yl)methanone]
IC50 [1]: 14.5 nM

O=C(C1CCc2c(sc3ncnc(Nc4ccc5[nH]ncc5c4)c23)C1)N1CCC(O)(C(F)(F)F)CC1 (racemic) [Example 194, (RS)-[4-hydroxy-4-(trifluoromethyl)piperidin-1-yl][4-(1H-indazol-5-ylamino)-5,6,7,8-tetrahydro[1]benzothieno[2,3-d]pyrimidin-7-yl]methanone]
IC50 [1]: 12 nM

COc1cc2[nH]ncc2cc1Nc1ncnc2sc3c(c12)CCC(C(=O)N1CCCC1)C3 (racemic) [Example 183, (RS)-{4-[(6-Methoxy-1H-indazol-5-yl)amino]-5,6,7,8-tetrahydro[1]benzothieno[2,3-d]pyrimidin-7-yl}(pyrrolidin-1-yl)methanone]
IC50 [1]: 3.2 nM

CCOC(=O)C1CCc2c(sc3ncnc(Nc4cc5cn[nH]c5cc4F)c23)C1 (stereo not shown) [Example 54, Ethyl 4-[(6-fluoro-1H-indazol-5-yl)amino]-5,6,7,8-tetrahydro[1]benzothieno[2,3-d]pyrimidine-7-carboxylate]
IC50 [1]: 19 nM

O=C(C1CCc2c(sc3ncnc(Nc4ccc5[nH]ncc5c4)c23)C1)N1CCN(c2cnccn2)CC1 (racemic) [Example 114, (RS)-[4-(1H-indazol-5-ylamino)-5,6,7,8-tetrahydro[1]benzothieno[2,3-d]pyrimidin-7-yl][4-(pyrazin-2-yl)piperazin-1-yl]methanone]
IC50 [1]: 12.5 nM

COc1ccccc1CNC(=O)C1CCc2c(sc3ncnc(Nc4ccc5[nH]ncc5c4)c23)C1 (stereo not shown) [Example 22, 4-(1H-Indazol-5-ylamino)-N-(2-methoxybenzyl)-5,6,7,8-tetrahydro[1] benzothieno[2,3-d] pyrimidine-7-carboxamide]
IC50 [1]: 3 nM

CCOc1cc2[nH]ncc2cc1Nc1ncnc2sc3c(c12)CCC(C(=O)N1CC2(CCS2(=O)=O)C1)C3 (racemic) [Example 263, (RS)-(1,1-Dioxido-1-thia-6-azaspiro[3.3]hept-6-yl){4-[(6-ethoxy-1H-indazol-5-yl)amino]-5,6,7,8-tetrahydro[1]benzothieno[2,3-d]pyrimidin-7-yl}methanone]
IC50 [1]: 3.3 nM

COc1cc2[nH]ncc2cc1Nc1ncnc2sc3c(c12)CCC(C(=O)N1CCC(=O)CC1)C3 (racemic) [Example 174, (RS)-1-({4-[(6-Methoxy-1H-indazol-5-yl)amino]-5,6,7,8-tetrahydro[1]benzothieno[2,3-d]pyrimidin-7-yl}carbonyl)piperidin-4-one]
IC50: 0.6 nM

COc1cc2[nH]ncc2cc1Nc1ncnc2sc3c(c12)CCC(C(=O)N1CC2CC1CO2)C3 (mixture of isomers) [Example 262, {(7RS)-4-[(6-Methoxy-1H-indazol-5-yl)amino]-5,6,7,8-tetrahydro[1]benzothieno[2,3-d]pyrimidin-7-yl}[(1S,4S)-2-oxa-5-azabicyclo[2.2.1]hept-5-yl]methanone]
IC50 [1]: 6.1 nM

CCN(CCO)C(=O)C1CCc2c(sc3ncnc(Nc4cc5cn[nH]c5cc4OC(C)C)c23)C1 (racemic) [Example 214, (RS)—N-ethyl-N-(2-hydroxyethyl)-4-{[6-(propan-2-yloxy)-1H-indazol-5-yl]amino}-5,6,7,8-tetrahydro[1]benzothieno[2,3-d]pyrimidine-7-carboxamide]
IC50 [1]: 0.3 nM

CN(C)CCCN(C)C(=O)C1CCc2c(sc3ncnc(Nc4ccc5[nH]ncc5c4)c23)C1 (racemic) [Example 96, (RS)-N-[3-(dimethylamino)propyl]-4-(1H-indazol-5-ylamino)-N-methyl-5,6,7,8-tetrahydro[1]benzothieno[2,3-d]pyrimidine-7-carboxamide]
IC50 [1]: 16.3 nM

COC(=O)C1CCc2c(sc3ncnc(Nc4ccc5[nH]ncc5c4)c23)C1 (racemic) [Example 73, (RS)-Methyl 4-(1H-indazol-5-ylamino)-5,6,7,8-tetrahydro[1]benzothieno[2,3-d]pyrimidine-7-carboxylate]
IC50 [1]: 8.9 nM

CN(Cc1ccccc1)C(=O)C1CCc2c(sc3ncnc(Nc4ccc5[nH]ncc5c4)c23)C1 (racemic) [Example 101, (RS)-N-benzyl-4-(1H-indazol-5-ylamino)-N-methyl-5,6,7,8-tetrahydro[1]benzothieno[2,3-d]pyrimidine-7-carboxamide]
IC50 [1]: 4.7 nM

CCN(CCC#N)C(=O)C1CCc2c(sc3ncnc(Nc4ccc5[nH]ncc5c4)c23)C1 (racemic) [Example 190, (RS)-N-(2-cyanoethyl)-N-ethyl-4-(1H-indazol-5-ylamino)-5,6,7,8-tetrahydro[1]benzothieno[2,3-d]pyrimidine-7-carboxamide]
IC50 [1]: 6 nM

NC(=O)C1CCc2c(sc3ncnc(Nc4ccc5[nH]ncc5c4)c23)C1 (stereo not shown) [Example 3, 4-(1H-Indazol-5-ylamino)-5,6,7,8-tetrahydro[1]benzothieno[2,3-d]pyrimidine-7-carboxamide]
IC50 [1]: 8 nM

COc1cc2[nH]ncc2cc1Nc1ncnc2sc3c(c12)CCC(C(=O)N1CCOCC1)C3 (racemic) [Example 175, (RS)-{4-[(6-Methoxy-1H-indazol-5-yl)amino]-5,6,7,8-tetrahydro[1]benzothieno[2,3-d]pyrimidin-7-yl}(morpholin-4-yl)methanone]
IC50 [1]: 0.5 nM

CCN(CC)CCN(C)C(=O)C1CCc2c(sc3ncnc(Nc4ccc5[nH]ncc5c4)c23)C1 (racemic) [Example 95, (RS)-N-[2-(diethylamino)ethyl]-4-(1H-indazol-5-ylamino)-N-methyl-5,6,7,8-tetrahydro[1]benzothieno[2,3-d]pyrimidine-7-carboxamide]
IC50 [1]: 20.6 nM

O=C(NC1CC1)C1CCc2c(sc3ncnc(Nc4ccc5[nH]ncc5c4)c23)C1 (stereo not shown) [Example 44, N-Cyclopropyl-4-(1H-indazol-5-ylamino)-5,6,7,8-tetrahydro[1] benzothieno [2,3-d]pyrimidine-7-carboxamide]
IC50 [1]: 9 nM
